Read-outs that look alike come from different tables or passages of the source. Non-standard residues stand in square brackets, D forms with d. Residues, ends and D or L forms follow the SMILES beside them. ξ: configuration not given here. *: point of attachment. d(β3hL) = CC(C)C[C@@H](N)CC(=O)O; hPhe = N[C@@H](CCc1ccccc1)C(=O)O; ξβ3hL = CC(C)CC(N)CC(=O)O; Boc = CC(C)(C)OC(=O)*; OBn = c1ccc(CO*)cc1; GABA = NCCCC(=O)O
Experiments:
[1] = system: cypris larvae of Striped Barnacle; test: Evaluation of antifouling activities and toxicity against the cypris larvae of Striped Barnacle (24-well plate, adhesion and mortality after 48 h); assay type: in vivo, Amphibalanus amphitrite
Experimental: After solutions of about 2 mL of the test compounds (tripeptides 2 to 10 and dipeptide 11) in ethanol were dispensed into each well of the 24-well polystyrene multi-well plate (3.2 mL/well, well diameter 15.5 mm, well height 17.6 mm, manufactured by Corning), the multi-well plate was air-dried to evaporate the ethanol.
The test compounds were aliquoted to achieve final concentrations of 0.03, 0.1, 0.3, 1, 3, and 10 µg/mL.
Subsequently, six individuals of the cypris larvae of Striped Barnacle (hereinafter simply referred to as "barnacle larvae") were transplanted into each well along with 2 mL of pre-filtered natural seawater. The multi-well plate was left standing in an incubator at 25°C, and the barnacle larvae were allowed to grow for two days at 25°C.
In the above procedure, a test for the control group was conducted by dispensing an ethanol solution without any test compound. The natural seawater used in the above test was prepared by diluting the natural seawater collected from the coastal area near Onjuku, Chiba Prefecture (salt concentration: 36 g/kg) with distilled water to adjust a salt concentration of 32 g/kg.
In the test group, the control group, and the comparison group, the tests were conducted in four times (four wells) for one concentration of each test compounds.
Forty-eight hours after the test started, the number of adhered individuals and the number of dead individuals of the barnacle larvae in each well were counted under a stereomicroscope. The adhesion rate (%) and mortality rate (%) of the barnacle larvae in each well were calculated, respectively. […] Similarly, for each test compound, a dose-mortality response curve was created to determine the half-maximal lethal concentration (48h LC50) that causes 50% mortality in the barnacle larvae. As a reference, the value of Boc-3 obtained from non-Patent literature 8 is also described.
In particular, the lower the settlement rate, the stronger the antifouling effect.

[2] = system: juvenile shellfish of Mediterranean mussel; test: Evaluation of the antifouling activity and toxicity against the juvenile shellfish of Mediterranean mussel (coated glass beaker, 3 days); assay type: in vivo, Mytilus galloprovincialis; settings: for bottom surface-adhered individuals % / bottom surface-crawling individuals % / overturned individuals or closed shell individuals (unadhered) % / wall surface-adhered individuals % / number of byssal threads on the bottom surface / bottom surface-adhered individuals No. / bottom surface-crawling individuals No. / overturned individuals or closed shell individuals (unadhered) No. / wall surface-adhered individuals No.: three days; for bottom surface-adhered individuals No. / bottom surface-crawling individuals No. / overturned individuals or closed shell individuals (unadhered) No. / wall surface-adhered individuals No.: twelve individuals; for antifouling effect (overall determination in words): juvenile Mediterranean mussel, 3.0 µg/mL and 10 µg/mL
Experimental: The sample was dissolved in ethanol to adjust to a concentration of 1 mg/mL. Thirty and 100 µL (30 and 100 µg) of the sample solutions were mixed with the solvent, and the mixtures were brought to a total volume of 500 µL. These mixtures were spread on the bottom surface of the glass beaker of the test container, and the solvent was volatilized by shaking them overnight. As a result, the samples to be evaluated were coated only on the bottom surface of the glass beaker.
A volume of 10 mL of the test seawater was added to the glass beakers of the test containers. The tests were initiated by introducing twelve test individuals into the test seawater in each beaker. The tests ended after three days, and the observation was conducted.
In Table 2, the terms "bottom surface-adhered individuals" and "wall surface-adhered individuals" refer to individuals that are adhered to the bottom surface and wall surface of the beaker, respectively; the term "bottom surface-crawling individuals" refers to individuals that move along the bottom surface without adhering; the term "overturned individuals or closed shell individuals (unadhered)" refers to individuals that are either overturned or in a closed shell without adhering to the bottom surface; and the term "number of byssal threads on the bottom surface" refers to the number of foot threads that are fixed to the bottom surface. In particular, the greater the reduction in the number of byssal threads, the stronger the effect of adhesion prevention.

[3] = system: KM20L2 (human colon cancer cell line); settings: Non-Patent Document 4; cited from earlier work
[4] = system: NCI-H460 (human lung cancer cell line); settings: Non-Patent Document 4; cited from earlier work
[5] = system: cypris larvae of the striped barnacle; settings: Non-Patent Documents 5 and 7, cited from earlier work
[6] = system: SF-295 (human glioblastoma cell line); settings: Non-Patent Document 4; cited from earlier work
[7] = Table 4 summary of results from Test Examples 1 to 3 (rounded)
[8] = Test Example 1, concentration causing 50% mortality in barnacle larvae, 48 h, 25°C, tested 0.03-10 µg/mL
[9] = Test Example 1, concentration that prevents adhesion of barnacle larvae by 50%, 48 h, 25°C, tested 0.03-10 µg/mL
[10] = 3 µg/mL (30 µg), control group 118
[11] = Test Example 3, same manner as Test Example 1

## CC(C)CC(CC(=O)OCc1ccccc1)NC(=O)[C@@H]1CCCN1C(=O)[C@H](Cc1ccccc1)NC(=O)OC(C)(C)C (stereo partly drawn) [tripeptide 8] (Boc-Phe-Pro-[ξβ3hL]-OBn)
[1]; [7]
  Antifouling activity 48h EC50: 1.1 mg/L
[1]; [8]
  Toxicity 48h LC50: >10 mg/L
[1]; [9]
  Antifouling activity 48h EC50: 1.13 mg/L
[1]; cypris larvae of Striped Barnacle, within the tested concentration range
  antifouling activity (in words): effective
[2]; 3 µg/mL (30 µg)
  bottom surface-adhered individuals %: 16.7%
  bottom surface-crawling individuals %: 0.0%
  overturned individuals or closed shell individuals (unadhered) %: 58.3%
  wall surface-adhered individuals %: 25.0%
  bottom surface-adhered individuals No.: 2
  bottom surface-crawling individuals No.: 0
  overturned individuals or closed shell individuals (unadhered) No.: 7
  wall surface-adhered individuals No.: 3
[2]; [10]
  number of byssal threads on the bottom surface: 25
[2]; 10 µg/mL (100 µg)
  bottom surface-adhered individuals %: 16.7%
  bottom surface-crawling individuals %: 0.0%
  number of byssal threads on the bottom surface: 12
  overturned individuals or closed shell individuals (unadhered) %: 83.3%
  wall surface-adhered individuals %: 0.0%
  bottom surface-adhered individuals No.: 2
  bottom surface-crawling individuals No.: 0
  overturned individuals or closed shell individuals (unadhered) No.: 10
  wall surface-adhered individuals No.: 0
[2]
  antifouling effect (overall determination in words): exhibit an antifouling effect
[2]; listed as compound 8
  antifouling effect (overall determination in words): effective

## CC(C)C(NC(=O)[C@@H]1CCCN1C(=O)[C@H](Cc1ccccc1)NC(=O)OC(C)(C)C)C(C)C(=O)O (stereo partly drawn) [tripeptide 7]
[1]; [7]
  Antifouling activity 48h EC50: >10 mg/L
[1]; [8]
  Toxicity 48h LC50: >10 mg/L
[1]; [9]
  Antifouling activity 48h EC50: >10 mg/L

## CC(C)C[C@H](CC(=O)OCc1ccccc1)NC(=O)[C@@H]1CCCN1C(=O)[C@H](CCc1ccccc1)NC(=O)OC(C)(C)C [tripeptide 12] (Boc-[hPhe]-Pro-[d(β3hL)]-OBn)
[1]; [7]
  Antifouling activity 48h EC50: 0.5 mg/L
[1]; [11]
  Antifouling activity 48h EC50: 0.49 mg/L
  Toxicity 48h LC50: >10 mg/L

## CCOC(=O)CCCNC(=O)[C@@H]1CCCN1C(=O)[C@H](Cc1ccccc1)NC(=O)OC(C)(C)C [tripeptide 5] (Boc-Phe-Pro-[GABA]-OEt)
[1]; [7]
  Antifouling activity 48h EC50: >10 mg/L
[1]; [8]
  Toxicity 48h LC50: >10 mg/L
[1]; [9]
  Antifouling activity 48h EC50: >10 mg/L

## Dolastatin 16 [reference compound]
[2]; 3 µg/mL (30 µg)
  bottom surface-adhered individuals %: 75.0%
  bottom surface-crawling individuals %: 0.0%
  overturned individuals or closed shell individuals (unadhered) %: 0.0%
  wall surface-adhered individuals %: 25.0%
  bottom surface-adhered individuals No.: 9
  bottom surface-crawling individuals No.: 0
  overturned individuals or closed shell individuals (unadhered) No.: 0
  wall surface-adhered individuals No.: 3
[2]; [10]
  number of byssal threads on the bottom surface: 72
[2]; 10 µg/mL (100 µg)
  bottom surface-adhered individuals %: 100.0%
  bottom surface-crawling individuals %: 0.0%
  number of byssal threads on the bottom surface: 45
  overturned individuals or closed shell individuals (unadhered) %: 0.0%
  wall surface-adhered individuals %: 0.0%
  bottom surface-adhered individuals No.: 12
  bottom surface-crawling individuals No.: 0
  overturned individuals or closed shell individuals (unadhered) No.: 0
  wall surface-adhered individuals No.: 0
[2]
  antifouling effect (overall determination in words): no antifouling effect
[3]
  growth-inhibiting effect (in words): growth-inhibiting effect
[4]
  growth-inhibiting effect (in words): growth-inhibiting effect
[5]
  antifouling action (in words): antifouling actions
[5]; listed as synthetic Dolastatin 16
  antifouling action (in words): equivalent to that of the natural Dolastatin 16
[6]
  growth-inhibiting effect (in words): growth-inhibiting effect

## CC(C)(C)OC(=O)N1CCC[C@H]1C(=O)N[C@@H](CC(=O)OCc1ccccc1)c1ccccc1 [dipeptide 14]
[1]; [7]
  Antifouling activity 48h EC50: 3.2 mg/L
[1]; [11]
  Antifouling activity 48h EC50: 3.18 mg/L
  Toxicity 48h LC50: >10 mg/L

## CC(C)C(NC(=O)[C@@H]1CCCN1C(=O)[C@H](Cc1ccccc1)NC(=O)OC(C)(C)C)C(C)C(=O)OCc1ccccc1 (stereo partly drawn) [tripeptide 6]
[1]; [7]
  Antifouling activity 48h EC50: 1.66 mg/L
[1]; [8]
  Toxicity 48h LC50: >10 mg/L
[1]; [9]
  Antifouling activity 48h EC50: 1.63 mg/L

## CC(C)(C)OC(=O)N1CCC[C@H]1C(=O)Nc1ccccc1C(=O)OCc1ccccc1 [dipeptide 13, reference compound]
[1]; [7]
  Antifouling activity 48h EC50: 0.8 mg/L
[1]; [11]
  Antifouling activity 48h EC50: 0.84 mg/L
  Toxicity 48h LC50: >10 mg/L

Reference: EP4790063A1, “PEPTIDE HAVING ACTIVITY FOR […] OF MARINE FOULING” (National University Corporation Hokkaido University, priority 2023, dated 2025)
